Laboratory results reported in patent US6358999B2, “Use of zinc tranexamate in the treatment of diabetes” (Hamari Chemicals, LTD, priority 2000, dated 2002).

Assays:
intestinal α-glucosidase [1] = assay: Inhibition of intestinal α-glucosidase activity of normal mouse (intestinal homogenate, glucose production); format: biochemical; details: for Glucose (glucose production from isomaltose): substrate isomaltose; for Glucose (glucose production from isomaltose) / Glucose (glucose production from maltose) / Glucose (glucose production from sucrose): 37° C., 30 minutes; for Glucose (glucose production from maltose): substrate maltose
Procedure: (§1) Intestinal tract enucleated from a normal mouse was homogenized by the conventional method after removing membrane mucosa. As a substrate, sucrose, starch, maltose or isomaltose was used. The homogenate was incubated with the substrate in the presence of a test compound (Y-4 or zinc chloride) at 37° C. for 30 minutes. The reaction mixture was centrifuged and the glucose concentration in the resulting supernatant was assayed. The glucose assay was conducted calorimetrically by adding a chromogenic reagent (0.47 mol/l of orthotoluidine, 16 mol/l of acetic acid, 10 mmol/l of boric acid) to the supernatant, heating the mixture in a boiling water bath for 8 minutes and measuring the absorbance at 635 nm. α-Glucosidase activity expressed in terms of glucose concentration/mg protein was calculated.

intestinal α-glucosidase [2] = assay: Inhibition of intestinal α-glucosidase activity of streptozocin-induced diabetic mouse; format: biochemical; details: for Glucose (glucose production from maltose) / Glucose (glucose production from sucrose): diabetic mouse; for Glucose (glucose production from maltose): substrate maltose; for Glucose (glucose production from sucrose): substrate sucrose
Procedure: as §1
Example 5 was repeated using intestinal tract enucleated from a diabetic mouse induced by the treatment with streptozocin instead of intestinal tract enucleated from a normal mouse to determine the inhibitory effect of Y-4 on α-glycosidase activity. The intestinal α-glucosidase activity was higher in streptozocin-induced diabetic mouse than in normal mouse. […] The inhibitory effect of Y-4 was more remarkable in the diabetic mouse than in normal mouse.

SMILES: [Cl-].[Cl-].[Zn+2] [ZnCl2, zinc chloride]
- Inhibition of the enzymatic reaction with other substrates (intestinal α-glucosidase [1]; starch, maltose, isomaltose): not effective
- Glucose (glucose production from isomaltose) (intestinal α-glucosidase [1]; inhibitor 5 mM): 6.207 ± 0.230 mg/mg protein
- Glucose (glucose production from isomaltose) (intestinal α-glucosidase [1]; inhibitor 10 mM): 5.868 ± 0.496 mg/mg protein
- Glucose (glucose production from isomaltose) (intestinal α-glucosidase [1]; inhibitor 30 mM): 6.510 ± 0.169 mg/mg protein
- Glucose (glucose production from isomaltose) (intestinal α-glucosidase [1]; inhibitor 50 mM): 5.421 ± 0.339 mg/mg protein
- Glucose (glucose production from maltose) (intestinal α-glucosidase [1]; inhibitor 5 mM): 19.917 ± 0.932 mg/mg protein
- Glucose (glucose production from maltose) (intestinal α-glucosidase [1]; inhibitor 10 mM): 18.114 ± 0.145 mg/mg protein
- Glucose (glucose production from maltose) (intestinal α-glucosidase [1]; inhibitor 30 mM): 15.657 ± 0.036 mg/mg protein
- Glucose (glucose production from maltose) (intestinal α-glucosidase [1]; inhibitor 50 mM): 10.442 ± 0.290 mg/mg protein
- Inhibition of the enzymatic reaction with sucrose (intestinal α-glucosidase [1]; substrate sucrose): as effective as Y-4
- Glucose (glucose production from sucrose) (intestinal α-glucosidase [1]; substrate sucrose, inhibitor 5 mM): 3.509 ± 0.254 mg/mg protein
- Glucose (glucose production from sucrose) (intestinal α-glucosidase [1]; substrate sucrose, inhibitor 10 mM): 1.658 ± 0.078 mg/mg protein
- Glucose (glucose production from sucrose) (intestinal α-glucosidase [1]; substrate sucrose, inhibitor 30 mM): 0.714 ± 0.097 mg/mg protein
- Glucose (glucose production from sucrose) (intestinal α-glucosidase [1]; substrate sucrose, inhibitor 50 mM): 0.133 ± 0.024 mg/mg protein
- Glucose (glucose production from maltose) (intestinal α-glucosidase [2]; inhibitor 5 mM): 28.691 ± 1.222 mg/mg protein
- Glucose (glucose production from maltose) (intestinal α-glucosidase [2]; inhibitor 10 mM): 20.698 ± 0.442 mg/mg protein
- Glucose (glucose production from maltose) (intestinal α-glucosidase [2]; inhibitor 30 mM): 21.175 ± 0.105 mg/mg protein
- Glucose (glucose production from maltose) (intestinal α-glucosidase [2]; inhibitor 50 mM): 21.838 ± 0.652 mg/mg protein
- Glucose (glucose production from sucrose) (intestinal α-glucosidase [2]; inhibitor 5 mM): 13.346 ± 0.411 mg/mg protein
- Glucose (glucose production from sucrose) (intestinal α-glucosidase [2]; inhibitor 10 mM): 6.716 ± 0.145 mg/mg protein
- Glucose (glucose production from sucrose) (intestinal α-glucosidase [2]; inhibitor 30 mM): 5.772 ± 0.121 mg/mg protein
- Glucose (glucose production from sucrose) (intestinal α-glucosidase [2]; inhibitor 50 mM): 4.973 ± 0.024 mg/mg protein
- Inhibition of intestinal α-glucosidase, all substrates (intestinal α-glucosidase [2]; streptozocin-induced diabetic mouse): only weak inhibitory effects
